PubChem BioAssay (NCI)
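Here, GI50 denotes the concentration required for 50% inhibition of growth. TGI: total growth inhibition.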

Assays:
Assay in all cases: NCI anticancer screen, dose series, 384-well format
[1] = system: 786-0 renal
[2] = system: A498 renal
[3] = system: A549 NSCLC
[4] = system: ACHN renal
[5] = system: BT-549 breast
[6] = system: CAKI-1 renal
[7] = system: CCRF-CEM leukemia
[8] = system: COLO 205 colon
[9] = system: DU-145 prostate
[10] = system: HCC-2998 colon
[11] = system: HCT-116 colon
[12] = system: HCT-15 colon
[13] = system: HL-60(TB) leukemia
[14] = system: HOP-62 NSCLC
[15] = system: HOP-92 NSCLC
[16] = system: HT29 colon
[17] = system: IGROV1 ovarian
[18] = system: K-562 leukemia
[19] = system: KM12 colon
[20] = system: LOX IMVI melanoma
[21] = system: M14 melanoma
[22] = system: MALME-3M melanoma
[23] = system: MCF7 breast
[24] = system: MDA-MB-231 breast
[25] = system: MDA-MB-435 melanoma
[26] = system: MDA-MB-468 breast
[27] = system: MOLT-4 leukemia
[28] = system: NCI-H226 lung
[29] = system: NCI-H23 lung
[30] = system: NCI-H322M lung
[31] = system: NCI-H460 NSCLC
[32] = system: NCI-H522 lung
[33] = system: NCI/ADR-RES ovarian
[34] = system: OVCAR-3 ovarian
[35] = system: OVCAR-4 ovarian
[36] = system: OVCAR-5 ovarian
[37] = system: OVCAR-8 ovarian
[38] = system: PC-3 prostate
[39] = system: RPMI-8226 leukemia
[40] = system: RXF 393 renal
[41] = system: SF-268 CNS
[42] = system: SF-295 CNS
[43] = system: SF-539 CNS
[44] = system: SK-MEL-2 melanoma
[45] = system: SK-MEL-28 melanoma
[46] = system: SK-MEL-5 melanoma
[47] = system: SK-OV-3 ovarian
[48] = system: SN12C renal
[49] = system: SNB-19 CNS
[50] = system: SR leukemia
[51] = system: SW-620 colon
[52] = system: T-47D breast
[53] = system: TK-10 renal
[54] = system: U251 glioblastoma
[55] = system: UACC-257 melanoma
[56] = system: UACC-62 melanoma
[57] = system: UO-31 renal

COc1cc2c(Oc3ccc(NC(=O)C4(C(=O)Nc5ccc(F)cc5)CC4)cc3F)ccnc2cc1OCCCN1CCOCC1
GI50 [1]: 1.19 µM | TGI [1]: 2.42 µM | GI50 [2]: 0.838 µM | TGI [2]: 2.08 µM | GI50 [3]: 0.329 µM | TGI [3]: 1.17 µM | GI50 [4]: 0.205 µM | TGI [4]: 0.718 µM | GI50 [5]: 0.44 µM | TGI [5]: 1.51 µM | GI50 [6]: 0.183 µM | TGI [6]: 0.584 µM | GI50 [7]: 0.0528 µM | TGI [7]: 0.189 µM | GI50 [8]: 0.211 µM | TGI [8]: 0.46 µM | GI50 [9]: 1.16 µM | TGI [9]: 2.39 µM | GI50 [10]: 1.11 µM | TGI [10]: 2.32 µM | GI50 [11]: 0.379 µM | TGI [11]: 1.57 µM | GI50 [12]: 0.419 µM | TGI [12]: 1.59 µM | GI50 [13]: 0.194 µM | TGI [13]: 0.387 µM | GI50 [14]: 0.668 µM | TGI [14]: 1.93 µM | GI50 [15]: 0.107 µM | TGI [15]: 0.421 µM | GI50 [16]: 0.324 µM | TGI [16]: 1.22 µM | GI50 [17]: 0.275 µM | TGI [17]: 0.99 µM | GI50 [18]: 0.0403 µM | TGI [18]: 0.143 µM | TGI [19]: 0.931 µM | GI50 [20]: 0.386 µM | TGI [20]: 0.945 µM | GI50 [21]: 0.293 µM | TGI [21]: 0.882 µM | GI50 [22]: 0.185 µM | TGI [22]: 0.541 µM | GI50 [23]: 0.331 µM | TGI [23]: 1.44 µM | GI50 [24]: 0.361 µM | TGI [24]: 1.66 µM | GI50 [25]: 0.331 µM | TGI [25]: 1.2 µM | GI50 [26]: 0.27 µM | TGI [26]: 0.547 µM | GI50 [27]: 0.0425 µM | TGI [27]: 0.137 µM | GI50 [28]: 0.276 µM | TGI [28]: 0.966 µM | GI50 [29]: 0.0463 µM | TGI [29]: 0.642 µM | GI50 [30]: 0.866 µM | TGI [30]: 2.1 µM | GI50 [31]: 0.219 µM | TGI [31]: 1.13 µM | GI50 [32]: 0.211 µM | TGI [32]: 0.817 µM | GI50 [33]: 0.436 µM | TGI [33]: 1.6 µM | GI50 [34]: 0.554 µM | TGI [34]: 1.78 µM | GI50 [35]: 0.409 µM | TGI [35]: 1.77 µM | GI50 [36]: 0.911 µM | TGI [36]: 2.12 µM | GI50 [37]: 1.19 µM | TGI [37]: 2.43 µM | GI50 [38]: 1.3 µM | TGI [38]: 2.58 µM | GI50 [39]: 0.202 µM | TGI [39]: 0.492 µM | GI50 [40]: 0.158 µM | TGI [40]: 0.548 µM | GI50 [41]: 0.781 µM | TGI [41]: 2.02 µM | GI50 [42]: 0.094 µM | TGI [42]: 1.51 µM | GI50 [43]: 0.135 µM | TGI [43]: 0.489 µM | GI50 [44]: 0.3 µM | TGI [44]: 1.24 µM | GI50 [45]: 0.361 µM | TGI [45]: 1.43 µM | GI50 [46]: 0.333 µM | TGI [46]: 1.46 µM | GI50 [47]: 0.522 µM | TGI [47]: 1.79 µM | GI50 [48]: 0.175 µM | TGI [48]: 1.06 µM | GI50 [49]: 1.18 µM | TGI [49]: 2.41 µM | GI50 [50]: 0.131 µM | TGI [50]: 0.261 µM | GI50 [51]: 0.201 µM | TGI [51]: 0.747 µM | GI50 [52]: 1.05 µM | TGI [52]: 2.23 µM | GI50 [53]: 0.648 µM | TGI [53]: 1.91 µM | GI50 [54]: 1.14 µM | TGI [54]: 2.36 µM | GI50 [55]: 0.265 µM | TGI [55]: 0.859 µM | GI50 [56]: 0.369 µM | TGI [56]: 1.55 µM | GI50 [57]: 0.314 µM | TGI [57]: 1.11 µM
